# Assay results from PMC6509344, “Novel CMKLR1 Inhibitors for Application in Demyelinating Disease” (Scientific Reports, 2019).
# Key:
# (hu)CMKLR1 L1.2 cells = experiment: Chemotaxis assay toward huChemerin; format: cell-based, human; conditions: Homo sapiens; (hu)CMKLR1 L1.2 cells migrating toward huChemerin, 2 h; read-out: Chemotaxis IC50 mean ± SEM (n)
# Description: (hu)CMKLR1 transfectants (generated in L1.2 pre-B cell lymphoma cells) were grown in RPMI 1640 (Corning) supplemented with L-glutamine, penicillin-streptomycin, and 10% BCS and G418-sulfate (KSE Scientific). DiscoverX PathHunter® CHO-K1 CMKLR1 β-Arrestin Cells were grown in RPMI lacking phenol red (Gibco, Life Technologies), supplemented with L-glutamine, penicillin-streptomycin, sodium pyruvate, non-essential amino acid, BCS, hygromycin, and G418-sulfate.
# (hu)CMKLR1 L1.2 cells at 1 × 10^6 cell/ml were treated with 5 mM sodium butyrate (Sigma) overnight to induce hCMKLR1 expression. The next day, cells were washed in migration media (RPMI + 0.5%BSA) and resuspended at 1.5–3 × 10^6 cell/ml. Cells were pre-incubated at RT for 10 min with various concentrations of α-NETA or test compounds (α-NETA and test compounds were reconstituted in DMSO; final DMSO concentration in each well was 0.1%). 100 ul of cells were added to the upper chamber of a 24-well transwell plate (5 um pore size, Costar). Cells were allowed to migrate toward huChemerin ([…] in migration media, bottom chamber) for 2 h, 37 °C, 5% CO2. The number of migrated cells was quantified by flow cytometry (BD LSR2), and live cells were distinguished based on FSC × SSC properties. The background for this assay was typically low with 0 cells migrating to the buffer alone. For each independent trial, data was normalized to the maximum migration per compound tested and an IC50 value was generated using GraphPad Prism software. The average IC50 value for n independent trials (as specified in the table) is reported.
# Cyp3A4 [1] = tested on: Cyp3A4; design: method as in PMID 25437209; conditions: substrate luciferin-6′ phenylpiperazinylyl; PubChem; cited from earlier work
# [2] = tested on: Pregnane X receptor (PXR); experiment: Cyp induction: PXR luciferase reporter in human hepatoma cell line; format: cell-based; conditions: concentrations up to 50 uM
# Description: Pregnane X receptor (PXR) activation was used as a marker of Cyp induction. An engineered human hepatoma cell line with a PXR luciferase reporter was incubated with the indicated concentrations of α-NETA, Rifampicin (positive control), or DMSO (negative control), and luciferase activity assessed (Cyprotex/Evotec AG).
# Cyp2C9 = biological target: T1, Cyp2C9 (Homo sapiens, UniProt P11712); experiment: Cyp enzyme inhibition in human liver microsomes; format: in vitro ADME; conditions: 30 min pre-incubation
# T1 construct: tissue Cyprotex/Evotec AG; host or cells: human liver microsomes
# [3] = Acute single dose toxicity (LD50); conditions: C57BL/6, mouse, in vivo; p.o. (oral gavage) in 10% captisol, WT C57BL6 mice, 14 days monitoring
# Description: C57/BL6 mice received one treatment of α-NETA (formulated in 10% captisol, Cydex Pharmaceuticals) at the following doses: 3000, 1000, 300, 100, 30, 0 mg/kg by oral gavage (200 ul/dose, 3 mice/group). Mouse survival was monitored and body weight was measured daily for 14 days. On day 14 the mice were euthanized and the wet weight for the following tissues: kidney, brain, spleen, liver, heart, and lung, was recorded.
# [4] = Repeat dosing toxicity, 14 days; conditions: C57BL/6, mouse, in vivo, po; repeated dosing p.o. for up to 14 days; read-out: no-observable-adverse-effect-level (NOAEL)
# Description: Mouse survival was monitored and body weight was measured daily for the length of the study. On day 14 the mice were euthanized and the wet weight for the following tissues: kidney, brain, spleen, liver, heart, and lung, was recorded.
# Cyp1A2 = tested on: Cyp1A2; design: method as in PubChem BioAssay ID 1476; conditions: ref PubChem BioAssay ID 1476; cited from earlier work
# Cyp2C19 = biological target: T2, Cyp2C19 (Homo sapiens, UniProt P33261); experiment: Cyp enzyme inhibition in human liver microsomes; format: in vitro ADME; conditions: 30 min pre-incubation
# T2 construct: tissue Cyprotex/Evotec AG; host or cells: human liver microsomes
# CYP3A4 [5] = biological target: T3, CYP3A4 (Homo sapiens, UniProt P08684); experiment: Cyp enzyme inhibition in human liver microsomes; format: in vitro ADME
# T3 construct: tissue Cyprotex/Evotec AG; host or cells: human liver microsomes
# C57BL/6 mice with EAE = experiment: Experimental autoimmune encephalomyelitis (EAE), MOG35–55/CFA immunization; format: in vivo, mouse
# Description: C57BL/6 mice were purchased from The Jackson Laboratory. […] Animal experiments were conducted in accordance with approved Veterans Affairs, National Institutes of Health, and Institutional Animal Care and Use Committee guidelines.
# CFA consisted of 5 mg/ml mTB (Mycobacterium-tuberculosis H37 Ra, BD Difco) in IFA (Incomplete Freund’s Adjuvant, Sigma). MOG35–55 was reconstituted at 2 mg/ml in PBS. Mice also received 200 ng pertussis toxin (List Biological Laboratories, Inc) by i.p. injection at the time of immunization and two days later. […] For a direct comparison to α-NETA, the DMF and compound doses were also 10 mg/kg in 10% captisol. Mice were monitored daily for clinical disease and scored (0 = normal/healthy, 1 = limp tail, 2 = hindlimb weakness, 3 = hindlimb paralysis, 4 = hindlimb and forelimb paralysis, 5 = moribund/dead).
# T3 sequence (P08684 whole entry): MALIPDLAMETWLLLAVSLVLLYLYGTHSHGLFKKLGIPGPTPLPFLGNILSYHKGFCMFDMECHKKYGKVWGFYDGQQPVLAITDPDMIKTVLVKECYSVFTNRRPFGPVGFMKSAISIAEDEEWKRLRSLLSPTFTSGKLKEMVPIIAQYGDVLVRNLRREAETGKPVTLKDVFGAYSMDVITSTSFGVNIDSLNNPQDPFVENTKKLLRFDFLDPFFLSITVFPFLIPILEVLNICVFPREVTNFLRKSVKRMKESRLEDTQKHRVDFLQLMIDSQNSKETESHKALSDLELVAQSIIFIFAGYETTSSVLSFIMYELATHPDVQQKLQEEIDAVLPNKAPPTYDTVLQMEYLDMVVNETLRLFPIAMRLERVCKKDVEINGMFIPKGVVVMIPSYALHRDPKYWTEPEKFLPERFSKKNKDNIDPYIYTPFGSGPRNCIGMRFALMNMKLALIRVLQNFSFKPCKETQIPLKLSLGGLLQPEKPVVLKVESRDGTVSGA
# T2 sequence (P33261 whole entry): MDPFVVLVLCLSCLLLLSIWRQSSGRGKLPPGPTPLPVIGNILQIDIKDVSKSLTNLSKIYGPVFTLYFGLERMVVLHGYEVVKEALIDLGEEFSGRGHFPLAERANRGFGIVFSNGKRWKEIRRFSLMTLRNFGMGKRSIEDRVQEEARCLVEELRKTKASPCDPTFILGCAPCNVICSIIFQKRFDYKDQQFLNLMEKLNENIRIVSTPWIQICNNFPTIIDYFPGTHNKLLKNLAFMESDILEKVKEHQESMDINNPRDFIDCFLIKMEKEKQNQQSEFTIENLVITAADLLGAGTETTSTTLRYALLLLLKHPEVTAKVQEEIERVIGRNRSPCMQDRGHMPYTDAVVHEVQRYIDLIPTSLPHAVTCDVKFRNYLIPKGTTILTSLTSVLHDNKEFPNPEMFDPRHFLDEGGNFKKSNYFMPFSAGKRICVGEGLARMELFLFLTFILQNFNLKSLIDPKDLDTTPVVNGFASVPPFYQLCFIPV
# T1 sequence (P11712 whole entry): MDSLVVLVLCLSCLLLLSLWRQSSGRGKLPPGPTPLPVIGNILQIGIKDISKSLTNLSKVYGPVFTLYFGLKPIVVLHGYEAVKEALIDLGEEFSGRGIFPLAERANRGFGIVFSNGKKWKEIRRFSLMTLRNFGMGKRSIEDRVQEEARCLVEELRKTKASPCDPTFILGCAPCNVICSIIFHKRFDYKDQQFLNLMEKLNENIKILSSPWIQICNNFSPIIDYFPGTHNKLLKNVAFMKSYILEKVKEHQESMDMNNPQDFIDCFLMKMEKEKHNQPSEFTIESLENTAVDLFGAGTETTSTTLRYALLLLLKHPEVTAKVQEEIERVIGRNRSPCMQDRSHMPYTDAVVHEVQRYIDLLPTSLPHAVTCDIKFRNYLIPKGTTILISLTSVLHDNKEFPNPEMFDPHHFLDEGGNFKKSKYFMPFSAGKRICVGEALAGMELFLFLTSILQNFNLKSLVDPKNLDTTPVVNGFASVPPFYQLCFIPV
structure (smiles),measurement,setting,value
"C[N+](C)(C)CCC(=O)c1cccc2ccccc12.[I-] [α-NETA, 2-(α-naphthoyl) ethyltrimethylammonium iodide]",IC50,(hu)CMKLR1 L1.2 cells,37 ± 8.9 µM
same,IC50,Cyp3A4 [1],0.2 µM
same,PXR activation (marker of Cyp induction),[2],did not induce substantial PXR activity
same,IC50,Cyp2C9,14.6 µM
same,LD50 at 14 days,[3],873 mg/kg
same,NOAEL at 14 days,[4],≥ 300 mg/kg
same,IC50,Cyp1A2,8 µM
same,IC50,Cyp2C19,84 µM
same,IC50,"CYP3A4 [5]; human, liver microsomes, probe midazolam, substrate Midazolam",7.4 µM
same,IC50,CYP3A4 [5]; substrate Midazolam,7.5 µM
same,IC50,CYP3A4 [5]; substrate testosterone,6.9 µM
same,day of EAE onset (mean ± SEM),"C57BL/6 mice with EAE; Fig. 1 study, 10 mg/kg daily in 10% captisol, s.c., d29 onset assumed for 2 α-NETA mice",21 ± 2 days
same,Day of onset (Mean ± SEM),"C57BL/6 mice with EAE; Table 4, 10 mg/kg daily to D21, n = 8",14.4 ± 0.6
same,Maximum Score (Mean ± SEM),"C57BL/6 mice with EAE; Table 4, 10 mg/kg daily to D21, n = 8, clinical score 0-5",2.6 ± 0.2
same,AUC (Mean ± SEM) of clinical score,"C57BL/6 mice with EAE; Table 4, 10 mg/kg daily to D21, n = 8, mean clinical score x day",31.9 ± 4.0
